# Earlier results, collected in article PMC11007962, “First-in-human study of GFH018, a small molecule inhibitor of transforming growth factor-β receptor I inhibitor, in patients with advanced solid tumors” (BMC Cancer, 2024).
# B1: bintrafusp alfa: bifunctional fusion protein targeting TGF-β and PD-L1 (antibody, chains of the INN, looked up, V domains shown)
# VH: EVQLLESGGGLVQPGGSLRLSCAASGFTFSSYIMMWVRQAPGKGLEWVSSIYPSGGITFYADTVKGRFTISRDNSKNTLYLQMNSLRAEDTAVYYCARIKLGTVTTVDYWGQGTLVTVSS
# VL: QSALTQPASVSGSPGQSITISCTGTSSDVGGYNYVSWYQQHPGKAPKLMIYDVSNRPSGVSNRFSGSKSGNTASLTISGLQAEDEADYYCSSYTSSSTRVFGTGTKVTVL
# Columns and labels:
# [1] = parameters: method as in PMID 25488804, PMID 26309397; conditions: consecutive regimens; cited from earlier work
# [2] = system: advanced HPV-associated malignancies; parameters: method as in PMID 33323462; conditions: patients with advanced HPV-associated malignancies; comparators are historical data; cited from earlier work
Molecule,cardiac findings in toxicology studies [1],ORR [2]
"Cc1cccc(-c2nn3c(c2-c2ccnc4ccc(C(N)=O)cc24)CCC3)n1 [galunsertib, reference compound]",cardiac lesions occur,–
nivolumab: historical comparator in HPV-associated malignancies,–,24%
pembrolizumab: historical comparator in HPV-associated malignancies,–,24%
B1,–,35.6%
